{
  "source": "paper PMC2946308",
  "about": "“Sialic acid transport and catabolism are cooperatively regulated by SiaR and CRP in nontypeable Haemophilus influenzae” (BMC Microbiology, 2010)",
  "molecular_target": "T1, SiaR (Haemophilus influenzae, UniProt P44540)",
  "T1 construct": "gene HI_0143; C-terminal His-tag, plasmid pJJ185 (earlier work), expressed in E. coli, tag not reported cut",
  "T1 sequence (P44540 whole entry)": "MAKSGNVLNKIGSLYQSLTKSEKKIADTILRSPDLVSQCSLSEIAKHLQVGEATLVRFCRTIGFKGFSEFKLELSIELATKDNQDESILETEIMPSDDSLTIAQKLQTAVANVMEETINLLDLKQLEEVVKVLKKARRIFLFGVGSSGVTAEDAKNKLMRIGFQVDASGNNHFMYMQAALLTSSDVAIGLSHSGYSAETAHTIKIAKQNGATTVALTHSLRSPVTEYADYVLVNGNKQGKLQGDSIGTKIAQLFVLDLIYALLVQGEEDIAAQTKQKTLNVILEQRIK",
  "assay": "EMSA with nan-siaPT intergenic DNA probe",
  "assay_type": "binding",
  "settings": "100 μM GlcN-6P; co-activator; serial dilutions of SiaR; 15 nM DNA probe; pH 7.4, room temperature",
  "data": [
    {"molecule": "N[C@H]1C(O)O[C@H](COP(=O)(O)O)[C@@H](O)[C@@H]1O", "note": "(stereo partly shown) [GlcN-6P]", "values": [
      {"measurement": "EMSA with nan-siaPT intergenic DNA probe", "result": "SiaR bound the probe and GlcN-6P slightly increased the binding affinity"}
    ]}
  ]
}
